SMILES strings stand for the structures.

For this assay, the target named is Cyclin-dependent kinase 2 (Homo sapiens, UniProt P24941). In words: Inhibition of CDK2.

The term IC50 denotes the concentration at which inhibition is half-maximal. The low end stands for greater potency, the high end for weaker potency. In turn, `Cn1c2ccccc2c2c3c(c4c5ccccc5n(CC(O)CO)c4c21)C(=O)NC3=O` (stereo unspecified) yielded an IC50 of less than 60 nM.

These data come from ChEMBL document CHEMBL2086254, “Synthesis and identification of novel indolo[2,3-a]pyrimido[5,4-c]carbazoles as a new class of anti-cancer agents” (Eur J Med Chem, 2012).
